Data on one compound can be found in patent EP1655296A1, “Thrombin inhibitors” (Graffinity Pharmaceuticals AG, priority 2004, dated 2006).

For this test, the target named is thrombin (Homo sapiens, UniProt P00734). In words: Ki determinations thrombin (fluorogenic substrate Tosyl-GPR-AMC). In kind it is biochemical. The conditions noted are these: 20 °C; Tosyl-GPR-AMC 20 µM; thrombin concentration of 100 pM; HBS pH 7.4. As for the experimental part: The Ki determinations are carried out at 20 °C with the fluorogenic substrate Tosyl-GPR-AMC (Bachem, Heidelberg, Germany; λexc = 370 nm, λem = 450 nm) at a thrombin concentration of 100 pM in HBS pH 7.4. The substrate is added to a final concentration of 20 µM in a total assay volume of 100 µl. The enzymatic reaction is started by addition of substrate. The emission at 450 nm is monitored in 1 minute intervals for 10 minutes using a polarstar reader (BMG Laboratories, Offenburg, Germany). Initial velocities of the control and the inhibited reactions (vo and vi) are estimated in FU/min at different compound concentrations. The inhibition constants are calculated using the Michaelis-Menten equation for competitive inhibition.

Where only a bound is given, the exact number is not on record here.

In the case of `Fc1c(NCCC2CCCCN2)ncc(Cl)c1CCNCc1n[nH]c2ccc(Cl)cc12` (stereo not shown) [example 1], the inhibitory constant (Ki) is under 1000 nM.
